Experimental data as given in paper PMC9334755 (Cancer Biology & Medicine, 2021).
Like-named read-outs stand apart in the source and are kept apart here.

How the values were obtained:
[1] = dog, in vivo
[2] = system: human peripheral B cells; test: CD69 up-regulation in B cells after anti-IgM stimulation; assay type: cell-based
Method: (§1) CD19^+ B (>80% purity) and CD3^+ T (>90% purity) cells were purified with human B cell enrichment cocktail and human T cell enrichment cocktail (Stem Cell Technology), respectively. Cells were seeded on 12-well plates and incubated with different concentrations of BTK inhibitors for 1 h. B cells were stimulated with 50 µg/mL anti-human IgM F(ab′)2, and T cells were stimulated with 50 µg/mL anti-CD3/CD28 beads overnight. In the washout groups, the cell medium containing the indicated inhibitors was replaced with fresh medium before stimulation. Then cells were then incubated with anti-human CD69 for 1 h and analyzed with a Guava flow cytometer.
Figure 4 SY-1530 blocks B-cell receptor signaling and induces apoptosis. (A–D) Human B and T cells were purified and incubated with different concentrations of BTK inhibitors for 1 h. B cells were stimulated with 50 μg/mL anti-human IgM F(ab′)2, and T cells were stimulated with 50 μg/mL anti-CD3/CD28 beads overnight directly or after washout of BTK inhibitors before stimulation. The percentage of CD69 positive cells was analyzed by flow cytometry. Data are shown as the mean ± SEM (n = 3). Statistical analysis was performed with Student’s t-test (*P < 0.05, **P < 0.01, ***P < 0.001). (E) Pfeiffer cells and Romas cells were preincubated with different concentrations of compounds for 1 h, washed with PBS, and then stimulated with anti-IgM/anti-IgG (10 μg/mL) for 10 min. Cells were lysed and analyzed by Western blot with the indicated antibodies. (F) Pfeiffer cells were treated with various concentrations of SY-1530 for 24 h. The cells were stained with both PE-Annexin and 7-AAD and analyzed by flow cytometry. Data are shown as the mean ± SEM (n = 3). Statistical analysis was performed with Student’s t-test (*P < 0.05, **P < 0.01). (G) Pfeiffer cells were incubated with BTK inhibitors in the presence of z-VAD-fmk (caspase inhibitor) or DMSO for 24 h. Cells were lysed and analyzed with specific antibodies.

[3] = mouse
[4] = system: T cell; test: Cell viability assay (CellTiter-Blue), human T cells; assay type: cell-based; settings: read-out: IC50 (nM), growth of T cell
Method: (§2) Cells were seeded on 96-well plates (9,000 cells/well), cultured at 37 °C in 5% CO2 overnight, and incubated with different concentrations of compounds for 3 or 7 days. Then the cells were stained with CellTiter-Blue® reagent (Promega) for 4 h at 37 °C. The fluorescence signals were detected with a FlexStation 3, and the IC50 values of each compound were determined with GraFit software (Version 6.0).
as §1

[5] = target: HCK (Homo sapiens, UniProt P08631); test: Protein kinase panel at 1 µM, HCK; assay type: biochemical
[6] = rat
[7] = rat, in vivo
[8] = target: TEC (Homo sapiens, UniProt P42680); test: HTRF kinase assay, TEC
TEC, sequence (P42680 whole entry): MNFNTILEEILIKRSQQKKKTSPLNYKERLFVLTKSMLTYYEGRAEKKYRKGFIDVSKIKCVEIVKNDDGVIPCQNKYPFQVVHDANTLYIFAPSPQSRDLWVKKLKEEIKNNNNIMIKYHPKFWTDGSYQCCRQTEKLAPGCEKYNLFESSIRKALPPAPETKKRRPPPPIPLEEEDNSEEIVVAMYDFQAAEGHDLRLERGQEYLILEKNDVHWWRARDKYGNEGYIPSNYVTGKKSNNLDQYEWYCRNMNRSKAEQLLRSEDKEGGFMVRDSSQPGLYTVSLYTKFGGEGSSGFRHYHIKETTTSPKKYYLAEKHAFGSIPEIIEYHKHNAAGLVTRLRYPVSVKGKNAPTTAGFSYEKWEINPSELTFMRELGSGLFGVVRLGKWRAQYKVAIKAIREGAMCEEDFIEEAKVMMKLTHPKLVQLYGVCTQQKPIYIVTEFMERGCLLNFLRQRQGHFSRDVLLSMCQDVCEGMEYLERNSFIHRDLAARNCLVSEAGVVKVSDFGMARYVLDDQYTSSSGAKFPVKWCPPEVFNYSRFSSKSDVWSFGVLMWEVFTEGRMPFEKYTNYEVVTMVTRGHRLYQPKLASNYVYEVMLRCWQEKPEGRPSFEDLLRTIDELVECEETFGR
Method: (§10) Homogeneous time-resolved fluorescence (HTRF) assays were performed with a HTRF® KinEASE™-TK kit (Trevigen).

[9] = target: CYP2C19 (Homo sapiens, UniProt P33261); assay type: in vitro ADME
Source text: (§3) Table S8 Inhibition of CYP isozymes by SY-1530 […]
(§4) (1 picture or pasted object on this page, not shown here)

[10] = target: CYP2D6 (Homo sapiens, UniProt P10635); assay type: in vitro ADME
Source text: as §3, §4

[11] = target: CYP2B6 (Homo sapiens, UniProt P20813); assay type: in vitro ADME
Source text: as §3, §4

[12] = target: hERG (Homo sapiens, UniProt Q12809)
hERG, sequence (Q12809 whole entry): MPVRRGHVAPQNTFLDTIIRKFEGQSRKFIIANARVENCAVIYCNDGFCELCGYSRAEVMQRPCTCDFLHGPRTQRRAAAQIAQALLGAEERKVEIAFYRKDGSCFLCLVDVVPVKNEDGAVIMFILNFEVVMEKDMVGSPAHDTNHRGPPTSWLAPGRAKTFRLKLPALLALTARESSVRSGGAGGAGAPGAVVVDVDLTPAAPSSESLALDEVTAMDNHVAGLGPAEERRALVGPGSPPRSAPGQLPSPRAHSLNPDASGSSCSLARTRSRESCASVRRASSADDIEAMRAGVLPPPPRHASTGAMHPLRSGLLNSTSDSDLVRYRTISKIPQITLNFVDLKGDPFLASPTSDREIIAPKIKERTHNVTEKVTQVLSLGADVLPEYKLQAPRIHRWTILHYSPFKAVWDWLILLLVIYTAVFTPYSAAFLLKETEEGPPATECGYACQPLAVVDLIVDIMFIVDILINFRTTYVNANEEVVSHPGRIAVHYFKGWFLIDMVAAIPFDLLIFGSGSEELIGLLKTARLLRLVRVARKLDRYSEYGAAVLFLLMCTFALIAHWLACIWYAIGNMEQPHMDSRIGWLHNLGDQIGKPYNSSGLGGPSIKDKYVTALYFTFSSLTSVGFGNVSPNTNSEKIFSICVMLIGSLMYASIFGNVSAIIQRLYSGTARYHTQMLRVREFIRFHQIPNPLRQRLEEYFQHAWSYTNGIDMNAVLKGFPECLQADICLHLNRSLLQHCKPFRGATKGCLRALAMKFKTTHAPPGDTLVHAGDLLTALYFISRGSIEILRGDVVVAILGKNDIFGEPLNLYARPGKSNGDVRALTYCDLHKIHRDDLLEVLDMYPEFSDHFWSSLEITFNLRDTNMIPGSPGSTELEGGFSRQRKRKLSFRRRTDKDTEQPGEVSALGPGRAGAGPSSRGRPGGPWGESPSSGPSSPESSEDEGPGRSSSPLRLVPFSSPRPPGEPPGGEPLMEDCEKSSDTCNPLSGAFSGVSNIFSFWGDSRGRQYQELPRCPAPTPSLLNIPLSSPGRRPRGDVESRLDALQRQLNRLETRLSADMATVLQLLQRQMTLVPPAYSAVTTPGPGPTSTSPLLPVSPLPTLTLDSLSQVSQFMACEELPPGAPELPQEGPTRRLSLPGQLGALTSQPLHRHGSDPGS
Source text: Tissue distribution *From the literature.
Hear Liver Spleen LungKidney Brain Uteru Ovar TestisPlasma
Compound Maximum concentration (μM) Inhibition rate of maximumconcentration IC 50 (μM) […]

[13] = target: FYN (Homo sapiens, UniProt P06241); test: Protein kinase panel at 1 µM, FYN; assay type: biochemical
FYN, sequence (P06241 whole entry): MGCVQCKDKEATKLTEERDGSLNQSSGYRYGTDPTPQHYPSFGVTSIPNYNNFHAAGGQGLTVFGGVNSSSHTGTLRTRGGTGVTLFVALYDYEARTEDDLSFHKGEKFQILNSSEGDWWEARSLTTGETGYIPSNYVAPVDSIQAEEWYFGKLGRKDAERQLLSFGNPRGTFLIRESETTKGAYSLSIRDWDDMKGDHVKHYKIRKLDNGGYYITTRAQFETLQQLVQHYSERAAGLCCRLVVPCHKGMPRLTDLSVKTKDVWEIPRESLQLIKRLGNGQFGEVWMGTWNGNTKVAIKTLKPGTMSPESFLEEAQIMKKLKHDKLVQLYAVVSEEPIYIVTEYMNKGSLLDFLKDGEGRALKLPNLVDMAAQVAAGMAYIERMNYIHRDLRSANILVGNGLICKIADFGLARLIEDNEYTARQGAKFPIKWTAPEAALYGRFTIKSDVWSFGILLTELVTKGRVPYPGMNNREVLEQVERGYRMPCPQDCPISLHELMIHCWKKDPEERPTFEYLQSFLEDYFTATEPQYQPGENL

[14] = system: TMD8; test: Cell viability assay (CellTiter-Blue), TMD8; assay type: cell-based, human; settings: TMD8 cells; read-out: IC50 (nM), growth of TMD8
Method: as §2

[15] = target: EGFR (Homo sapiens, UniProt P00533); test: HTRF kinase assay, EGFR
EGFR, sequence (P00533 25-1210): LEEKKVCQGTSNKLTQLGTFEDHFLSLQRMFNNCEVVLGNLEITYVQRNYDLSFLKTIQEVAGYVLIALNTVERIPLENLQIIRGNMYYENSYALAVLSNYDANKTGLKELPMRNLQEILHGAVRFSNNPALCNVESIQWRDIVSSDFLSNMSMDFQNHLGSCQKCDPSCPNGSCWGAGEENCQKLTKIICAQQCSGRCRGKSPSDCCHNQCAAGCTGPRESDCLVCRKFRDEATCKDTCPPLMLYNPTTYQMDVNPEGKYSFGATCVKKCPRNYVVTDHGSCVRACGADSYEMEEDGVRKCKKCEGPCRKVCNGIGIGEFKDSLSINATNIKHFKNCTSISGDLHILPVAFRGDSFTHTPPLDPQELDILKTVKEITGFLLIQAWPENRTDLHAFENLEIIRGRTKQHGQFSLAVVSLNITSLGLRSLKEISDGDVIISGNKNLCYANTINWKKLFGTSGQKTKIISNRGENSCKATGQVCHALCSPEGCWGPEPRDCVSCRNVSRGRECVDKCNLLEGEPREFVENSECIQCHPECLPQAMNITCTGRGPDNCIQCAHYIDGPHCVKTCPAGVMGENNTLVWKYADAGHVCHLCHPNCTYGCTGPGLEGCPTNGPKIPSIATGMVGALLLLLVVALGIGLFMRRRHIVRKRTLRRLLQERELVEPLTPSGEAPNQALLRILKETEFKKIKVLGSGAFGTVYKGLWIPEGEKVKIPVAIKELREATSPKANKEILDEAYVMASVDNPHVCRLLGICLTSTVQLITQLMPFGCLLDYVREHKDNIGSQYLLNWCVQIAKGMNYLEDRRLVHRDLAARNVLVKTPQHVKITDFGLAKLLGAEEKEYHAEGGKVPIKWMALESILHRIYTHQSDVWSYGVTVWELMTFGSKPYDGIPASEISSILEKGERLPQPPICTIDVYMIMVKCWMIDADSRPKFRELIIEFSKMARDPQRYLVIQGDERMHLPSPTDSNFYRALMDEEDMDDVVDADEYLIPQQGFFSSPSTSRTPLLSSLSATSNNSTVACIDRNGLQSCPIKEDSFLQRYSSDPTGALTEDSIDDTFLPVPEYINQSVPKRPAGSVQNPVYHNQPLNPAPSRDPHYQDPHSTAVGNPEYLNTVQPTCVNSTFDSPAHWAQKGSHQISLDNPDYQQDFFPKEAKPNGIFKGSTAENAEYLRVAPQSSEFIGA
Method: as §10

[16] = target: FRK (Homo sapiens, UniProt P42685); test: Protein kinase panel at 1 µM, FRK; assay type: biochemical
[17] = target: JAK3 (Homo sapiens, UniProt P52333); test: HTRF kinase assay, JAK3
JAK3, sequence (P52333 whole entry): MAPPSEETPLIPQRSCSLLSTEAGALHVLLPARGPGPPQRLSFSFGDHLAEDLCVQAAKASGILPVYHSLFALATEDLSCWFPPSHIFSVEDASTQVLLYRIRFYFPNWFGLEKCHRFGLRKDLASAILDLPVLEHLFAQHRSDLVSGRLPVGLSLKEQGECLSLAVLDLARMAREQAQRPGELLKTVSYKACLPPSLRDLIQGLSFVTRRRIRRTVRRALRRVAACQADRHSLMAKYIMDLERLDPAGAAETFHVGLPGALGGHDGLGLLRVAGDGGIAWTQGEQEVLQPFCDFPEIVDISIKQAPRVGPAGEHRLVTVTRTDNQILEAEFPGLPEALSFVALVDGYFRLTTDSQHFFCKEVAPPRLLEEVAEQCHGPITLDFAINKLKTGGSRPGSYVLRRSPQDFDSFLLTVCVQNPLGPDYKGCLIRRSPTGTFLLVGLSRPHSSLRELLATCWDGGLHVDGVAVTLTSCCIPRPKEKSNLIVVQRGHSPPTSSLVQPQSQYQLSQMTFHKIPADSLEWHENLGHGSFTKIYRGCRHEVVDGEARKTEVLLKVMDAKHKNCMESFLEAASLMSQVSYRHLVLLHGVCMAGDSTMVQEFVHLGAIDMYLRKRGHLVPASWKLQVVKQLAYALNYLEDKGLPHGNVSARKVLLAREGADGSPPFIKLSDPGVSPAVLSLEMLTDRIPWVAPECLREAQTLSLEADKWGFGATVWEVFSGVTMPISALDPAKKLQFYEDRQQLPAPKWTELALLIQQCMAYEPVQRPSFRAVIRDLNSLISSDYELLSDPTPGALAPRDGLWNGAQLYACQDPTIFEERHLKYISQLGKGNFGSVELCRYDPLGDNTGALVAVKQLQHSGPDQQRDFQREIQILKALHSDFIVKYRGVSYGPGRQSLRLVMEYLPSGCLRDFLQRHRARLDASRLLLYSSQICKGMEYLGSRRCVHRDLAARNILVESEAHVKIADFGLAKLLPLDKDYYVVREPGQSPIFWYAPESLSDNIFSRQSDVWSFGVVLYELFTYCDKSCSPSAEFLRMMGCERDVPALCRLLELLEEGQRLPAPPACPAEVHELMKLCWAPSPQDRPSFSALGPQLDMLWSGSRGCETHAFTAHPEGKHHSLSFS
Method: as §10

[18] = target: CYP2C8 (Homo sapiens, UniProt P10632); assay type: in vitro ADME
Source text: (§5) Cancer Biol Med Vol 19, No 7 July 2022 3
(§6) Table S8 Inhibition of CYP isozymes by SY-1530
(§7) Table S9 Preclinical safety of SY-1530
(§8) Group Single-dose toxicity Multiple-dose toxicity
(§9) Animal Rat Beagle dog Rat Beagle dog
as §4

[19] = target: CYP1A2 (Homo sapiens, UniProt P05177); assay type: in vitro ADME
Source text: as §5, §6, §7, §8, §9, §4

[20] = IC50 SY-1530 over IC50 ibrutinib

COC/C=C/C(=O)N1CC[C@@H](n2nc(-c3ccc(Oc4ccccc4)cc3)c(C(N)=O)c2N)C1 [SY-1530]
AUC0–∞ ([1]; iv, 3 mg/kg): 5458 ng·h/mL | CL ([1]; iv, 3 mg/kg): 9.32 mL/min/kg | Vss ([1]; iv, 3 mg/kg): 0.857 L/kg | t½ ([1]; iv, 3 mg/kg): 1.44 h | AUC0–∞ ([1]; po, 10 mg/kg): 4411 ng·h/mL | Cmax ([1]; po, 10 mg/kg): 1039 ng/mL | F (%) ([1]; po, 10 mg/kg): 24.2% | Tmax ([1]; po, 10 mg/kg): 1.08 h | t½ ([1]; po, 10 mg/kg): 3.85 h | AUC0–∞ ([1]; po, 30 mg/kg): 6365 ng·h/mL | Cmax ([1]; po, 30 mg/kg): 1572 ng/mL | F (%) ([1]; po, 30 mg/kg): 11.7% | Tmax ([1]; po, 30 mg/kg): 0.917 h | t½ ([1]; po, 30 mg/kg): 5.33 h | AUC0–∞ ([1]; po, 100 mg/kg): 9095 ng·h/mL | Cmax ([1]; po, 100 mg/kg): 2127 ng/mL | F (%) ([1]; po, 100 mg/kg): 5.00% | Tmax ([1]; po, 100 mg/kg): 1.25 h | t½ ([1]; po, 100 mg/kg): 5.03 h | Up-regulation of CD69 in B cells after anti-IgM ([2]; continuous exposure, 10 nM): completely abolished | Up-regulation of CD69 in B cells after anti-IgM ([2]; inhibitors washed out before BCR stimulation): blocked | Plasma protein binding (%) [3]: 94.8% | IC50 [4]: > 10000 nM | Inhibition (%), HCK [5]: 67% | Plasma protein binding (%) [6]: 95.0% | AUC0–∞ ([7]; iv, 5 mg/kg): 4112 ng·h/mL | AUC0–∞ ([7]; po, 30 mg/kg): 4460 ng·h/mL | Cmax ([7]; po, 30 mg/kg): 658 ng/mL | F (%) ([7]; po, 30 mg/kg): 18.1% | Tmax ([7]; po, 30 mg/kg): 3.33 h | t½ ([7]; po, 30 mg/kg): 4.79 h | AUC0–∞ ([7]; po, 100 mg/kg): 6842 ng·h/mL | Cmax ([7]; po, 100 mg/kg): 1085 ng/mL | F (%) ([7]; po, 100 mg/kg): 8.32% | Tmax ([7]; po, 100 mg/kg): 1.75 h | t½ ([7]; po, 100 mg/kg): 3.08 h | AUC0–∞ ([7]; po, 300 mg/kg): 9257 ng·h/mL | Cmax ([7]; po, 300 mg/kg): 1129 ng/mL | F (%) ([7]; po, 300 mg/kg): 3.75% | Tmax ([7]; po, 300 mg/kg): 5.25 h | t½ ([7]; po, 300 mg/kg): 3.9 h | Ratio, TEC [8, 20]: 1.3 | IC50 ([8]; read-out: IC50 (nM), TEC, HTRF): 10.4 nM | IC50 [9]: 23.8 µM | IC50 [10]: > 25 µM | IC50 [11]: > 25 µM | IC50 [12]: 5.41 µM | Inhibition rate of maximum concentration, hERG ([12]; 30 µM): 86.75 ± 2.61% | Inhibition (%), FYN [13]: 87% | IC50 [14]: 15.6 nM | Ratio, EGFR [15, 20]: 225 | IC50 ([15]; read-out: IC50 (nM), EGFR, HTRF): 360 nM | Inhibition (%), FRK [16]: 72% | Ratio, JAK3 [17, 20]: > 27 | IC50 ([17]; read-out: IC50 (nM), JAK3, HTRF): > 10000 nM | IC50 [18]: > 25 µM | IC50 [19]: > 25 µM
